{"source": "EPA's ToxValDB 9.5 (doi:10.2903/j.efsa.2017.4693)", "key": {"Typhlodromus pyri": {"tested_on": "Typhlodromus pyri", "experiment": "LR50; higher = less toxic", "conditions": "not reported; mortality"}, "Canidae": {"tested_on": "Canidae", "conditions": "oral, Dog Other, body weight"}, "Tagia sp.": {"tested_on": "Tagia sp.", "conditions": "chronic/long-term; reproduction"}, "Mus musculus": {"tested_on": "Mus musculus", "conditions": "acute; oral; mortality"}, "Colinus virginianus": {"tested_on": "Colinus virginianus", "conditions": "acute; oral; mortality"}, "Apis mellifera": {"tested_on": "Apis mellifera", "conditions": "acute, duration: 48 hours, mortality"}, "Hypoaspis aculeifer": {"tested_on": "Hypoaspis aculeifer", "conditions": "chronic/long-term; duration: 14 days; reproduction"}, "Daphnia magna": {"tested_on": "Daphnia magna", "conditions": "chronic/long-term; duration: 21 days; reproduction"}, "Oncorhynchus mykiss": {"tested_on": "Oncorhynchus mykiss", "conditions": "chronic/long-term; duration: 87 days; growth"}, "Lepomis macrochirus": {"tested_on": "Lepomis macrochirus", "conditions": "acute; duration: 96 hours; mortality"}}, "data": [{"smiles": "COc1ccc(-c2ccccc2)cc1NNC(=O)OC(C)C", "note": "[Bifenazate]", "values": [{"measurement": "LR50", "setting": "Typhlodromus pyri", "value": 23.8, "unit": "g/ha"}, {"measurement": "NOAEL", "setting": "Canidae; chronic, duration: 1 years", "value": 1, "unit": "mg/kg-day"}, {"measurement": "NOAEL", "setting": "Canidae; subchronic, duration: 90 days", "value": 1, "unit": "mg/kg-day"}, {"measurement": "NOEC", "setting": "Tagia sp.", "value": 9.75, "unit": "mg/kg"}, {"measurement": "NOEL", "setting": "Anas platyrhynchos; reproductive, duration: 23 weeks, F", "value": 2.3, "unit": "mg/kg-day"}, {"measurement": "LD50", "setting": "Anas platyrhynchos; short-term, oral, feed, mortality", "value": 106, "unit": "mg/kg-day"}, {"measurement": "LD50", "setting": "Mus musculus", "value": "> 5000", "unit": "mg/kg-day"}, {"measurement": "LD50", "setting": "Colinus virginianus", "value": 1040, "unit": "mg/kg-day"}, {"measurement": "LD50", "setting": "Apis mellifera; dermal", "value": 8.5, "unit": "µg/piece"}, {"measurement": "LD50", "setting": "Apis mellifera; oral, unspecified", "value": "> 100", "unit": "µg/piece"}, {"measurement": "NOEC", "setting": "Hypoaspis aculeifer", "value": 6.56, "unit": "mg/kg"}, {"measurement": "NOEC", "setting": "Daphnia magna", "value": 0.15, "unit": "mg/L"}, {"measurement": "NOEC", "setting": "Oncorhynchus mykiss", "value": 0.017, "unit": "mg/L"}, {"measurement": "LD50", "setting": "Rattus norvegicus; acute, oral, mortality", "value": "> 5000", "unit": "mg/kg-day"}, {"measurement": "NOAEL", "setting": "Rattus norvegicus; chronic, duration: 2 years, hematological", "value": 1, "unit": "mg/kg-day"}, {"measurement": "NOAEL", "setting": "Rattus norvegicus; reproduction developmental, body weight", "value": 10, "unit": "mg/kg-day"}, {"measurement": "NOAEL", "setting": "Rattus norvegicus; reproduction developmental, food consumption", "value": 1.5, "unit": "mg/kg-day"}, {"measurement": "LC50", "setting": "Lepomis macrochirus", "value": 0.58, "unit": "µg/mL"}]}]}
